Assay results: publication PMC5540273, “Progress towards a public chemogenomic set for protein kinases and a call for contributions” (PLoS ONE, 2017)

How the values were obtained:
Assay in all cases: KINOMEscan competition binding
ACVRL1 = ACVRL1 (Homo sapiens, UniProt P37023); details: read-out: %Inh ACVRL1
ADCK4 = target: T1, ADCK4 (Homo sapiens, UniProt Q96D53); details: read-out: %Inh ADCK4
T1 sequence (Q96D53 1-544): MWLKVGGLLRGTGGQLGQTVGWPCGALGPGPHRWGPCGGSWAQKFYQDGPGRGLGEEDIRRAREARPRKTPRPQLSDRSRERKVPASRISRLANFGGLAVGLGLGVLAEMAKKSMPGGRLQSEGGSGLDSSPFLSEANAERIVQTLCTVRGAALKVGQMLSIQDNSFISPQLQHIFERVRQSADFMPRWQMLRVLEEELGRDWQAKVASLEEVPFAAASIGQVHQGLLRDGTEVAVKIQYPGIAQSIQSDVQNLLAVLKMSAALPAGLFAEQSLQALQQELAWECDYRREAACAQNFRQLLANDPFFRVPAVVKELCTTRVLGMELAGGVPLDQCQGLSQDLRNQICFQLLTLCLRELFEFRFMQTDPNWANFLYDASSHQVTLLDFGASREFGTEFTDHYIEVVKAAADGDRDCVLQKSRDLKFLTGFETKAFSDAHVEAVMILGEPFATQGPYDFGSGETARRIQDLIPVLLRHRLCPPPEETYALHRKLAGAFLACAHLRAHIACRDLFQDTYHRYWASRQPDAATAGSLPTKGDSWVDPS

AKT1 = AKT1 (Homo sapiens, UniProt P31749); details: read-out: %Inh AKT1
Chain of AKT1 (P31749 whole entry): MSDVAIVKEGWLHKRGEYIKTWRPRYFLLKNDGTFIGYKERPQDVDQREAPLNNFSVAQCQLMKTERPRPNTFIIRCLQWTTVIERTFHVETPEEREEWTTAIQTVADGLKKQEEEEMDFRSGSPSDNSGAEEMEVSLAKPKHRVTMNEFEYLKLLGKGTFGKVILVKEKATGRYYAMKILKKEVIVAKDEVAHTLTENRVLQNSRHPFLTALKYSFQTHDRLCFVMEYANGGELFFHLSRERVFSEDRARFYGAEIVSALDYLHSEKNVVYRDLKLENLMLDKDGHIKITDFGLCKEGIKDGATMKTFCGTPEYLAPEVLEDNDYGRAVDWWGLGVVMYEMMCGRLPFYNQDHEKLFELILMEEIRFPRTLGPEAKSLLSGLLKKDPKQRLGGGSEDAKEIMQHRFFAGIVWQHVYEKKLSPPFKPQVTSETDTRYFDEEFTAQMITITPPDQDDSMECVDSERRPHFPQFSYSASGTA

BRSK1 = target: T2, BRSK1 (Homo sapiens, UniProt Q8TDC3); details: read-out: %Inh BRSK1
T2 sequence (Q8TDC3 1-778): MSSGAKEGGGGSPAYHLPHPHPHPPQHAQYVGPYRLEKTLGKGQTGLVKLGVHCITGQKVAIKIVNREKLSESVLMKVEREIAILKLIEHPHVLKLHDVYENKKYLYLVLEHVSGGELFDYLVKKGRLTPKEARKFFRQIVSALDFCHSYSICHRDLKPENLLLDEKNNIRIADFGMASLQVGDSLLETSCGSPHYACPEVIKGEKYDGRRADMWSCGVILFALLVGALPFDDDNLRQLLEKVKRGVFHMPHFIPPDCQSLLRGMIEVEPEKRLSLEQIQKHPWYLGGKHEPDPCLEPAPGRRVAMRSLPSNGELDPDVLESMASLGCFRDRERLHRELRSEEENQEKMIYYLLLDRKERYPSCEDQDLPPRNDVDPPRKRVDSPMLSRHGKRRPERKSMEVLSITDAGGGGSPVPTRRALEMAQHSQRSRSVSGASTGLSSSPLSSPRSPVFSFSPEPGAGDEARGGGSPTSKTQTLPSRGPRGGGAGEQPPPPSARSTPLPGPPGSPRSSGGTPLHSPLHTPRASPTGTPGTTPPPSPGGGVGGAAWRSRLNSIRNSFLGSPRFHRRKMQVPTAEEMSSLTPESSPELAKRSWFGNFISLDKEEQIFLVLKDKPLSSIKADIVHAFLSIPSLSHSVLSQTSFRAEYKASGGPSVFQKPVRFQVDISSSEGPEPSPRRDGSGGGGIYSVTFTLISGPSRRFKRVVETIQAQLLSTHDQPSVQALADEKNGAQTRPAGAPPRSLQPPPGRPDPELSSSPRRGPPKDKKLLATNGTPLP

CAMK2D = CAMK2D (Homo sapiens, UniProt Q13557); details: read-out: %Inh CAMK2D
Chain of CAMK2D (Q13557 whole entry): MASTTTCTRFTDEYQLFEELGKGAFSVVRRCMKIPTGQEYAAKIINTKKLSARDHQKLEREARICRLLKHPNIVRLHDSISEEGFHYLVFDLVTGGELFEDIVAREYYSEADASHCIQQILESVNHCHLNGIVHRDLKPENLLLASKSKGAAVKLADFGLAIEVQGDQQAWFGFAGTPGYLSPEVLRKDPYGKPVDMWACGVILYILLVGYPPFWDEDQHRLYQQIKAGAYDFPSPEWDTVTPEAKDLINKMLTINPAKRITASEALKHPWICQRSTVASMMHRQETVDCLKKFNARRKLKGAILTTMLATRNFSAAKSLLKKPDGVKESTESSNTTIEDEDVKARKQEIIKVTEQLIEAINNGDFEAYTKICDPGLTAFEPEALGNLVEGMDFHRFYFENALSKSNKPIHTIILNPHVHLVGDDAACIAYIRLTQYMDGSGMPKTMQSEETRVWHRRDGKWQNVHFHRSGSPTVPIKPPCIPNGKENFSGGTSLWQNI

CDK2 = CDK2 (Homo sapiens, UniProt P24941); details: read-out: %Inh CDK2
DCAMKL2 = target: T3, DCAMKL2 (Homo sapiens, UniProt Q8N568); details: read-out: %Inh DCAMKL2
T3 sequence (Q8N568 1-766): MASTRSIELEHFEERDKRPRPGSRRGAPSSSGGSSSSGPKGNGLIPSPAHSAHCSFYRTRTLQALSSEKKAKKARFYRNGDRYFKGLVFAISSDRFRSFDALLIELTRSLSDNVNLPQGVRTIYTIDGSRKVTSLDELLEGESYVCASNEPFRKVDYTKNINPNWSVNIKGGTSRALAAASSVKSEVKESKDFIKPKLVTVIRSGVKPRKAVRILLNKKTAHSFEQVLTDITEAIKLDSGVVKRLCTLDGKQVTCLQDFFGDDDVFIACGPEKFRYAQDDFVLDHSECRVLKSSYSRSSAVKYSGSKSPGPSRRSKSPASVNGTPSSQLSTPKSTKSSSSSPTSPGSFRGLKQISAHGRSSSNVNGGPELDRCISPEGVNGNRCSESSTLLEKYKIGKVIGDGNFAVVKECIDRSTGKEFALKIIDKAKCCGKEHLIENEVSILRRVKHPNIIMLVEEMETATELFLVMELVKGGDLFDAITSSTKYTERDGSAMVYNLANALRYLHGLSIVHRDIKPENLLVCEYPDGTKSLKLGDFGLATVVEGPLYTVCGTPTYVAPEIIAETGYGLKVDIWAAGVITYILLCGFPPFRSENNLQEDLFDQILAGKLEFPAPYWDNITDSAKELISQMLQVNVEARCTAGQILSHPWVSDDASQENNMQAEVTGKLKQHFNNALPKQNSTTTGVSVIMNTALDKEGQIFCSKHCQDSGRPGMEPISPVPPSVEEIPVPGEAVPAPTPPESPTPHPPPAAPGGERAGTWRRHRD

DMPK2 = DMPK2 (Homo sapiens, UniProt Q6DT37); details: read-out: %Inh DMPK2
Chain of DMPK2 (Q6DT37 whole entry): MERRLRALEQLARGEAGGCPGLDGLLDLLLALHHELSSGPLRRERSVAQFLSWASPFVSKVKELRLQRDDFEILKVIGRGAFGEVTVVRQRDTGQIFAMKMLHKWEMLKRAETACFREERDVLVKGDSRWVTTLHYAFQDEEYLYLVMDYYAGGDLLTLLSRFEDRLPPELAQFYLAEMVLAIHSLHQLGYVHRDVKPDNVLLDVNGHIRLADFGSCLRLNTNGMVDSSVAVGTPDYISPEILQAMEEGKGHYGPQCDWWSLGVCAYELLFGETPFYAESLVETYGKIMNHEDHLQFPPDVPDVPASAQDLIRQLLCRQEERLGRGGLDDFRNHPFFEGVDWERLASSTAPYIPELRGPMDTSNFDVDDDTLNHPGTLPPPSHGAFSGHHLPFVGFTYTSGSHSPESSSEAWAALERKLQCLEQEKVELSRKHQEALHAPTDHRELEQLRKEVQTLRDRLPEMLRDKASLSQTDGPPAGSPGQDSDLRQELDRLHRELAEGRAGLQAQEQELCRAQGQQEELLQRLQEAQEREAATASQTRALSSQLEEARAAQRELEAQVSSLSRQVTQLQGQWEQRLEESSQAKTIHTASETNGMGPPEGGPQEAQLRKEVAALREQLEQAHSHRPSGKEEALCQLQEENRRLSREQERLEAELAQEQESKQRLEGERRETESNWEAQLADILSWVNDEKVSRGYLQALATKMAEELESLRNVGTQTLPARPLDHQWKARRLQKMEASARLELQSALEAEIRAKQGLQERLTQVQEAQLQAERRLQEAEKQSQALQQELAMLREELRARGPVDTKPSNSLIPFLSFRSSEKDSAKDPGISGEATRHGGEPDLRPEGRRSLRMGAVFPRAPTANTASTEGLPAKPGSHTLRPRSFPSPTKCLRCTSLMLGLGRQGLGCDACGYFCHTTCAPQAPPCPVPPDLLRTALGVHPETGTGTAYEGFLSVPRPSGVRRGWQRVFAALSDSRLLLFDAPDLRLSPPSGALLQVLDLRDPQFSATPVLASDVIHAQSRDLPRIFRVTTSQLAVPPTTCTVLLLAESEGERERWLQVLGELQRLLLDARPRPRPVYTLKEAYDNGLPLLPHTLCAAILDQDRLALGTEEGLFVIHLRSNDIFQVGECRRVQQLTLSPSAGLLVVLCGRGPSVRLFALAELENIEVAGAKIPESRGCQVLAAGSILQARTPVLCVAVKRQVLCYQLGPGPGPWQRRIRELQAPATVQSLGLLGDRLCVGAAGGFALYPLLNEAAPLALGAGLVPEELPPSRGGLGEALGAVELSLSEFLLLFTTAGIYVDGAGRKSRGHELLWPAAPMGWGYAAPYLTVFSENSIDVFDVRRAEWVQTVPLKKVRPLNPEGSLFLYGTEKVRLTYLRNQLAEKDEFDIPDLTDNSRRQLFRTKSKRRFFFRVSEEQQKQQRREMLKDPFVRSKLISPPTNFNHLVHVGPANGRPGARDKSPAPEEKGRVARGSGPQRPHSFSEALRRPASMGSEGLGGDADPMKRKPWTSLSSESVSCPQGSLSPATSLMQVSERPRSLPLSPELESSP

ERK1 = ERK1 (Homo sapiens, UniProt P27361); details: read-out: %Inh ERK1
Chain of ERK1 (P27361 whole entry): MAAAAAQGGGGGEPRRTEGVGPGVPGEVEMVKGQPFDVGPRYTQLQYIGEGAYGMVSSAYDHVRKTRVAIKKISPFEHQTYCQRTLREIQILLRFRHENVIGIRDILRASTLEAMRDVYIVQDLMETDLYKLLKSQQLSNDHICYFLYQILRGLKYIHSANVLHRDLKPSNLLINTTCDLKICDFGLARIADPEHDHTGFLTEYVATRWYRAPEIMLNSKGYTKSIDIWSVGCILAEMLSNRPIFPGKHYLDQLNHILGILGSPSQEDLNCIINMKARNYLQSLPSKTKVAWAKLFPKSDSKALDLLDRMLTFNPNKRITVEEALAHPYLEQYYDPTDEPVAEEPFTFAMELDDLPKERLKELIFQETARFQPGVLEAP

LOK = LOK (Homo sapiens, UniProt O94804); details: read-out: %Inh LOK
Chain of LOK (O94804 whole entry): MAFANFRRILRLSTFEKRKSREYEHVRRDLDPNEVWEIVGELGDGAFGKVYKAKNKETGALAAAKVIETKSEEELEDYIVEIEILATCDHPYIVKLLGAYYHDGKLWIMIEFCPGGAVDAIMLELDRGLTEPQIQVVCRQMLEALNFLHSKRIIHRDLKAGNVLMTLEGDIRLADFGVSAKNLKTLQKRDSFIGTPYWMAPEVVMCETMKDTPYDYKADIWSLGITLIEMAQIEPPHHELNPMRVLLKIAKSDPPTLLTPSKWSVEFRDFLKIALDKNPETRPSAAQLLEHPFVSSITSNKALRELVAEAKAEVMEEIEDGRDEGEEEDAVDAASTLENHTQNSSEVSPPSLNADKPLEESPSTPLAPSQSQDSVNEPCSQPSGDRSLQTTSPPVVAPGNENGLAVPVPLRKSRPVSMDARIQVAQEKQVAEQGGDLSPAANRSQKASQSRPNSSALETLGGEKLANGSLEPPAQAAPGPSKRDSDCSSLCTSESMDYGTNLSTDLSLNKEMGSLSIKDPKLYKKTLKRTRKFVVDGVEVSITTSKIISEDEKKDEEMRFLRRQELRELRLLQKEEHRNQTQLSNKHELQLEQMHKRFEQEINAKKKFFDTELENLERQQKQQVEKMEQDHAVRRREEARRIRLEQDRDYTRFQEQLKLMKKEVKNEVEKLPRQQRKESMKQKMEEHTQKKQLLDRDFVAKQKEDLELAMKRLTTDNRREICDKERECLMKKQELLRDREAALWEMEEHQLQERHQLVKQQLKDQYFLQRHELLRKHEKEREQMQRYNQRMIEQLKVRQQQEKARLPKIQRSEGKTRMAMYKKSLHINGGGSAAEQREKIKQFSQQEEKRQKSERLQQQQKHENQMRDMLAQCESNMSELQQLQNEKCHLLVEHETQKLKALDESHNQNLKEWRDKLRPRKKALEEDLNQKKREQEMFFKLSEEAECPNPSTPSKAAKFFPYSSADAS

Chain of ACVRL1 (P37023 22-503): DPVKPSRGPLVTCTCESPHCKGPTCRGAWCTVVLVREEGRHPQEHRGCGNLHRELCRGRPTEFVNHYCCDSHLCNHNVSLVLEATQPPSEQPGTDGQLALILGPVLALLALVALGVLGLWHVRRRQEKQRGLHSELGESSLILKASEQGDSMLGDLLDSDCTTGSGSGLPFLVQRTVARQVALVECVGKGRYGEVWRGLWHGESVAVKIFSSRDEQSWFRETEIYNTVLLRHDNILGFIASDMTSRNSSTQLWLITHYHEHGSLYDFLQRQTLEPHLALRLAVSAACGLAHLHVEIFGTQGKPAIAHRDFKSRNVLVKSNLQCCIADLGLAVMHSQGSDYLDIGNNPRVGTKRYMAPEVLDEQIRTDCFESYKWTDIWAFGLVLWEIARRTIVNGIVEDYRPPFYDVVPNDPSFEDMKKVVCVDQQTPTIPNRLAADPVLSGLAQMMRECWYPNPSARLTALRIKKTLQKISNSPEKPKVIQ

Compound | inhibition at 1 µM (ACVRL1) [%] | inhibition at 1 µM (ADCK4) [%] | inhibition at 1 µM (AKT1) [%] | inhibition at 1 µM (BRSK1) [%] | inhibition at 1 µM (CAMK2D) [%] | inhibition at 1 µM (CDK2) [%] | inhibition at 1 µM (DCAMKL2) [%] | inhibition at 1 µM (DMPK2) [%] | inhibition at 1 µM (ERK1) [%] | inhibition at 1 µM (LOK) [%]
CS(=O)(=O)Cc1ccc(Nc2nccc(-c3c(-c4cccc(NC(=O)C5CCCCC5)c4)nn4ncccc34)n2)cc1 [UNC10225159A] | 0 | 0 | 23 | 0 | 0 | 0 | 15 | 35 | 2 | 81
Cn1cc(-c2cnc(N)c3c(-c4ccc5c(c4)CCN5C(=O)Cc4ccccc4)csc23)cn1 [UNC10225012A] | 0 | 0 | 14 | 0 | 0 | 0 | 0 | 81 | 0 | 98.9
O=c1cc(N2CCOCC2)nc2n(Cc3cccc(Cl)c3Cl)c(C3CC3)nn12 [UNC10225469A] | 9 | 0 | 12 | 3 | 18 | 0 | 7 | 0 | 0 | 0
COc1cccc(OC)c1C(=O)Nc1cccc(-c2nn3ccccc3c2-c2ccnc(Nc3cccc(F)c3)n2)c1 [UNC10225310A] | 7 | 0 | 4 | 0 | 0 | 0 | 0 | 84 | 1 | 90
Cc1ccc(NC(=O)Nc2cccc(C(F)(F)F)c2)cc1 [UNC10225187A] | 0 | 0 | 12 | 0 | 8 | 0 | 0 | 0 | 0 | 0
